Assay results published in patent US9828350B2, “5,6-dihydro-2H-[1,4]oxazin-3-yl-amine derivatives useful as inhibitors of beta-secretase (BACE)” (Janssen Pharmaceutica NV, priority 2010, dated 2017).

Columns and labels:
Abeta 1-38 = conditions: 20 mg/kg, 24 h
Aβ42 = assay: Demonstration of in vivo efficacy, brain Aβ42 lowering (ELISA); conditions: mouse brain, 30 mpk, s.c., 4 h
Abeta 1-42 = conditions: 20 mg/kg, 24 h
P-gp = molecular target: T1, P-gp (Homo sapiens, UniProt P08183); assay: Transepithelial transport of test compounds through LLC-MDR1 monolayers; format: in vitro ADME; conditions: pig, LLC-PK1
T1 construct: expressed in transfected cells; host or cells: LLC-PK1 cells stably transduced with MDR1 (LLC-MDR1)
T1 sequence (P08183 whole entry): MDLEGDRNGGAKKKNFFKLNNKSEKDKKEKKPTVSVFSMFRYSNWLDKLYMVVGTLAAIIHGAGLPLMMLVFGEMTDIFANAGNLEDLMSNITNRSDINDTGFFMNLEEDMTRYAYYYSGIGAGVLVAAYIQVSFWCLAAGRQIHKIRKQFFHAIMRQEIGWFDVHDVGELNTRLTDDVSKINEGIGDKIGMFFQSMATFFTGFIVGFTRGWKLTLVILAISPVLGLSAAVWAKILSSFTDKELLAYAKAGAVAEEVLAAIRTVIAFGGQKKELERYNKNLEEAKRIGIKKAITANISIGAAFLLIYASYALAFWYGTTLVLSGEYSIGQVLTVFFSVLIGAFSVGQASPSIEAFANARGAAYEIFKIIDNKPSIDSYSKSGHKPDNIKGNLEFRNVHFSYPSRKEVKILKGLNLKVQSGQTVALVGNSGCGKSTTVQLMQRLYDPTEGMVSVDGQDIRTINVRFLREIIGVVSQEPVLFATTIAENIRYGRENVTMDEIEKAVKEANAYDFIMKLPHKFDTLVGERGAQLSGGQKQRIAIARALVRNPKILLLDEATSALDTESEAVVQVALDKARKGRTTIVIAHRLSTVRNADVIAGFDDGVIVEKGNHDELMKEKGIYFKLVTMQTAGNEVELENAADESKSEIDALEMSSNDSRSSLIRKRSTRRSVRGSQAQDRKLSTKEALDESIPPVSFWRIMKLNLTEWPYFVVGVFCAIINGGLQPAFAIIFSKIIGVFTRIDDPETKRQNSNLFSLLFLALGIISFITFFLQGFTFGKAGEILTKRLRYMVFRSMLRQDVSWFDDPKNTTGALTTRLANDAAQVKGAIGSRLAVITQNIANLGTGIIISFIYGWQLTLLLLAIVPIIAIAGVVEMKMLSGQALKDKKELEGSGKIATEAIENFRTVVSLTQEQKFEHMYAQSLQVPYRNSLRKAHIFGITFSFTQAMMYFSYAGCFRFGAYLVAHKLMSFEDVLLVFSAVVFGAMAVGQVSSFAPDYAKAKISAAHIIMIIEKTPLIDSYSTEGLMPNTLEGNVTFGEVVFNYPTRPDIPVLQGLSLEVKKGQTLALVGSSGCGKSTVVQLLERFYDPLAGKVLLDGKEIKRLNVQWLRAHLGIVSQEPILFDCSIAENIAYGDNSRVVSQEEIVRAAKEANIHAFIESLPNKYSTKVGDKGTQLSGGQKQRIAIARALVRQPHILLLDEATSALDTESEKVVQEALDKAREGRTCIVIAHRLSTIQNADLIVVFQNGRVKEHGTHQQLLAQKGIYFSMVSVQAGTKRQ
Procedure: Brief Assay Description for the Measurement of Transepithelial Transport of Test Compounds Through LLC-MDR1 Monolayers
The purpose of this assay was to assess both the in vitro passive permeability of test compounds and their ability to be transported substrates of P-gp using LLC-PK1 cells stably transduced with MDR1 in a trans-well system. The positive control for transport was ^3H-digoxin (30 nM) and the positive control inhibitor was GF120918 (5 μM). The marker compound for low permeability was ^14C-Mannitol (1 μM). The test compound concentration was 1 μM.
The integrity of the cellular monolayer was assessed in each incubation well through the inclusion of the fluorescent, low permeability marker compound, Fluorescein.
In detail, LLC-MDR1 cells were seeded on 24-well cell culture inserts (Millicell®-PCF, 0.4 μm, 13 mm diameter, 0.7 cm^2) at 400,000 cells/cm^2. Cell culture medium consisted of Medium 199 supplemented with 10% Foetal Bovine Serum (FBS) and 100 U/ml Penicillin/streptomycin and was replaced the day after seeding and the day before the experiment. The transport experiment was performed 5 days after seeding. On the day of the experiment, solutions of the test compounds were applied to the apical or basolateral side of the monolayers to assess transport in the A to B and B to A directions, respectively. The medium used in the assay was (OPTI-MEM (1×) (GIBCO) with 1 w/v % Bovine Serum Albumin. Inserts were incubated at 37° C. in a humidified incubator containing 5% CO2. Samples from the acceptor and donor compartments were collected after an incubation time of 120 min, to assess the permeability and to allow estimation of the test compound recovery during the experiment, respectively. Transport experiments were performed in triplicate. Absolute test compound concentrations were measured using LC-MS/MS and quantified via a calibration curve.

Aβtotal = assay: Demonstration of in vivo efficacy, brain Aβtotal lowering (ELISA); conditions: mouse brain, 30 mpk, s.c., 4 h
[1] = Single dose pharmacology in the Beagle dog, limited safety evaluation; format: in vivo; conditions: single dose 20 mg/kg
Procedure: Single Dose Pharmacology in the Beagle Dog
Compound 86 was tested to evaluate the effect on the beta-amyloid profile in cerebrospinal fluid (CSF) of dogs after a single dose, in combination with pharmacokinetic (PK) follow up and limited safety evaluation. 6 Beagle dogs (3 male, 3 female) were dosed with vehicle (4 ml/kg of an aqueous suspension of 20% cyclodextrin and Tween) and 6 Beagle dogs (3 male, 3 female) were dosed with compound 86 (20 mg/kg in 2 ml/kg of an aqueous 20% cyclodextrin solution) on an empty stomach. CSF was taken in conscious animals directly from the lateral ventricle via a cannula which was screwed in the skull and covered with subcutaneous tissue and skin, before and at 4, 8 and 24 hours after dosing. 8 Hours after dosing the animals got access to their regular meal for 30 minutes. Blood was taken for PK follow up (0.5, 1, 2, 4, 8 and 24 hours) and at the time of the CSF sampling, samples for serum analysis were taken. An additional sample for serum analysis was taken 10 days after dosing. The CSF samples were used for measurement of Abeta 1-37, Abeta 1-38, Abeta 1-40 and Abeta 1-42.

SMILES: C[C@]1(c2cccc(NC(=O)c3ccc(Cl)cn3)c2)N=C(N)CO[C@@H]1F (single isomer, unassigned) [Compound 86, (R*,R*)—N-[3-(5-amino-2-fluoro-3-methyl-3,6-dihydro-2H-1,4-oxazin-3-yl)phenyl]-5-chloropyridine-2-carboxamide]
- decrease in Abeta 1-38 in CSF compared to own baseline (Abeta 1-38): > 90%
- Aβ42 (% Ctrl)_Mean (Aβ42): 60 % Ctrl
- decrease in Abeta 1-42 in CSF compared to own baseline (Abeta 1-42): > 90%
- efflux ratio at 120 min, 1 μM (P-gp; LLC-MDR1 monolayers, ratio of B to A and A to B permeation rates, read-out: BA/AB): 1.6
- Papp A→B at 120 min, 1 μM (P-gp; read-out: A to B (Apparent Permeability, Papp)): 13.2 ×10⁻⁶ cm/s
- Papp B→A at 120 min, 1 μM (P-gp; read-out: B to A (Apparent Permeability, Papp)): 20.9 ×10⁻⁶ cm/s
- Aβtotal (% Ctrl)_Mean (Aβtotal): 55 % Ctrl
- clinical abnormalities in behavior [1]: no overt clinical abnormalities in behavior
- changes in serum parameters (liver enzymes, bilirubin, ...) ([1]; serum up to 10 days after dosing): No acute or delayed changes in serum parameters
